Assays:
2G12 = 2G12 at 1:10000 dilution; earlier experiment, different version of the microarray; cited from earlier work
PGT 128 = assay: Neoglycolipid microarray binding, PGT 128; details: PGT 128 at 10 μg/ml pre-complexed with biotinylated anti-human-IgG; 5 fmol/spot
Description: (§1) The microarrays (designated N-glycan-related Array Set 1) consisted of NGLs prepared by reductive amination (70) or oxime ligation (71) (Table S5). These were robotically printed onto nitrocellulose-coated glass slides as described (72), each at two levels (2 and 5 fmol/spot) in duplicate. The binding assays (70) were performed at ambient temperature. The PGTs 127 and 128 were pre-complexed with biotinylated anti-human-IgG (Vector) at a 1:3 ratio, w/w, before applying onto the slides at a final concentration of 10 μg/ml. Biotinylated ConA (Vector) was tested at 0.5 μg/ml. Binding was detected with Alexa-Fluor 647 labelled streptavidin (Molecular Probes) at 1 μg/ml. Microarray data analysis was performed with dedicated software. Binding signals were oligosaccharide dose-related. Results at 5 fmol/spot with selected oligomannose NGLs (prepared by reductive amination) are in FIG. 9A, and the full data with the 50 NGLs are shown in Table S6. Included for comparison are the results with human 2G12 (Polymun Scientific) taken from an earlier experiment performed using a different version of microarrays (73). Antibody 2G12 was analyzed at 1:10000 dilution (without pre-complexation), and the binding was detected with biotinylated anti-human-IgG followed by Alexa-Fluor 647 labelled streptavidin.

PGT 127 = assay: Neoglycolipid microarray binding, PGT 127; details: PGT 127 at 10 μg/ml pre-complexed with biotinylated anti-human-IgG; 5 fmol/spot
Description: as §1

plant lectin ConA = target: T1, plant lectin ConA (Canavalia ensiformis, UniProt P02866); assay: Neoglycolipid microarray binding, ConA; details: biotinylated ConA at 0.5 μg/ml
T1 construct: purchased Vector
Description: as §1

[1] = target: HIV-1 JR-FL envelope (Env) on pseudovirus (HIV-1 JR-FL); assay: cell-based or functional assay
[2] = target: HIV-1 JR-CSF envelope (Env) on pseudovirus (HIV-1 JR-CSF) (UniProt P20871); assay: cell-based or functional assay
[3] = target: gp120 JR-FL (HIV-1 JR-FL); assay: gp120 ELISA
[4] = target: gp120 JR-CSF (HIV-1 JR-CSF) (UniProt P20871); assay: gp120 ELISA

Molecule	Fluorescence signal intensity 2G12 (2G12)	Fluorescence signal intensity 128 (PGT 128)	Fluorescence signal intensity 127 (PGT 127)	Fluorescence signal intensity ConA (plant lectin ConA)	Fold change in neutralization (IC50 variant/IC50 WT antibody) [1] [fold]	Fold change in neutralization (IC50 variant/IC50 WT antibody) [2] [fold]	fold change in gp120 binding (EC50 variant/EC50 WT) [3] [fold]	fold change in gp120 binding (EC50 variant/EC50 WT) [4] [fold]
CCCCCCCCCCCCCCCCOCC(COP(=O)(O)OCCNCC(NC(C)=O)C(O)C(OC1OC(CO)C(O)C(O)C1O)C(O)CO)OCCCCCCCCCCCCCCCC (stereo not drawn) [Man1GN1-DH, Manβ-4GlcNAc-DH]	101	— (Signal less than 1)	— (Signal less than 1)	— (Signal less than 1)	–	–	–	–
CCCCCCCCCCCCCCCCOCC(COP(=O)(O)OCCNCC(OC1OC(CO)C(O)C(O)C1O)C(O)C(O)C(O)CO)OCCCCCCCCCCCCCCCC (stereo not drawn) [Man2(α2)-DH, Manα-2Man-DH]	73	— (Signal less than 1)	— (Signal less than 1)	— (Signal less than 1)	–	–	–	–
CCCCCCCCCCCCCCCCOCC(COP(=O)(O)OCCNCC(O)C(OC1OC(CO)C(O)C(O)C1O)C(O)C(O)CO)OCCCCCCCCCCCCCCCC (stereo not drawn) [Man2(α3)-DH, Manα-3Man-DH]	136	82	— (Signal less than 1)	— (Signal less than 1)	–	–	–	–
CCCCCCCCCCCCCCCCOCC(COP(=O)(O)OCCNCC(O)C(O)C(O)C(O)COC1OC(CO)C(O)C(O)C1O)OCCCCCCCCCCCCCCCC (stereo not drawn) [Man2(α6)-DH, Manα-6Man-DH]	205	— (Signal less than 1)	— (Signal less than 1)	608	–	–	–	–
CCCCCCCCCCCCCCCCOCC(COP(=O)(O)OCCNCC(NC(C)=O)C(O)C(OC1OC(CO)C(O)C(OC2OC(CO)C(O)C(O)C2O)C1O)C(O)CO)OCCCCCCCCCCCCCCCC (stereo not drawn) [Man2GN1-DH, Manα-3Manβ-4GlcNAc-DH]	— (Signal less than 1)	16	— (Signal less than 1)	575	–	–	–	–
CCCCCCCCCCCCCCCCOCC(COP(=O)(O)OCCNCC(NC(C)=O)C(O)C(OC1OC(CO)C(OC2OC(COC3OC(CO)C(O)C(O)C3O)C(O)C(O)C2O)C(O)C1NC(C)=O)C(O)CO)OCCCCCCCCCCCCCCCC (stereo not drawn) [Man2aGN2-DH, Manα-6Manβ-4GlcNAcβ-4GlcNAc-DH]	— (Signal less than 1)	— (Signal less than 1)	— (Signal less than 1)	1,923	–	–	–	–
CCCCCCCCCCCCCCCCOCC(COP(=O)(O)OCCNCC(O)C(OC1OC(CO)C(O)C(O)C1O)C(O)C(O)COC1OC(CO)C(O)C(O)C1O)OCCCCCCCCCCCCCCCC (stereo not drawn) [Man3(α3,α6)-DH]	— (Signal less than 1)	— (Signal less than 1)	— (Signal less than 1)	759	–	–	–	–
CCCCCCCCCCCCCCCCOCC(COP(=O)(O)OCCNCC(NC(C)=O)C(O)C(OC1OC(CO)C(OC2OC(COC3OC(CO)C(O)C(O)C3O)C(O)C(OC3OC(CO)C(O)C(O)C3O)C2O)C(O)C1NC(C)=O)C(O)COC1OC(C)C(O)C(O)C1O)OCCCCCCCCCCCCCCCC (stereo not drawn) [Man3FGN2-DH]	52	— (Signal less than 1)	— (Signal less than 1)	20,011	–	–	–	–
CCCCCCCCCCCCCCCCOCC(COP(=O)(O)OCCNCC(NC(C)=O)C(O)C(OC1OC(CO)C(OC2OC(COC3OC(CO)C(O)C(O)C3O)C(O)C(OC3OC(CO)C(O)C(O)C3O)C2OC2OCC(O)C(O)C2O)C(O)C1NC(C)=O)C(O)CO)OCCCCCCCCCCCCCCCC (stereo not drawn) [Man3XylGN2-DH]	— (Signal less than 1)	— (Signal less than 1)	— (Signal less than 1)	977	–	–	–	–
CCCCCCCCCCCCCCCCOCC(COP(=O)(O)OCCNCC(NC(C)=O)C(O)C(OC1OC(CO)C(OC2OC(COC3OC(CO)C(O)C(O)C3O)C(O)C(OC3OC(CO)C(O)C(O)C3O)C2O)C(O)C1NC(C)=O)C(O)CO)OCCCCCCCCCCCCCCCC (stereo not drawn) [Man3aGN2-DH]	24	— (Signal less than 1)	— (Signal less than 1)	14,192	–	–	–	–
CCCCCCCCCCCCCCCCOCC(COP(=O)(O)OCCNCC(NC(C)=O)C(O)C(OC1OC(CO)C(OC2OC(COC3OC(CO)C(O)C(OC4OC(CO)C(O)C(O)C4O)C3O)C(O)C(OC3OC(CO)C(O)C(O)C3O)C2O)C(O)C1NC(C)=O)C(O)CO)OCCCCCCCCCCCCCCCC (stereo not drawn) [Man4aGN2-DH]	— (Signal less than 1)	26	— (Signal less than 1)	2,885	–	–	–	–
PGT 128 IgG variant HC A30Q (antibody)	–	–	–	–	11.4	2.4	1.5	1.9
PGT 128 IgG variant HC A70D (antibody)	–	–	–	–	–	1.9	1	0.5
